Test results from patent publication US10150734B2, “Solid forms of 2-(5-(3-fluorophenyl)-3-hydroxypicolinamido)acetic acid, compositions, and uses thereof” (Akebia Therapeutics, Inc., priority 2015, dated 2018).
Values after ≈ are worked out from the molar mass of the structure shown. “Also recorded” adds a separate entry of the source. Where two headings read alike, the source gives them in different places.

Key:
[1] = Thermal stability experiments (solid stored at 60 °C; XRPD and HPLC); conditions: for XRPD, aliquot time point Day 1 / XRPD, aliquot time point Day 7: solid stored at 60.0 °C; for Chemical stability / degradation by HPLC after storage at 60 °C for seven days (in words) / Physical form / XRPD pattern change after storage at 60 °C for seven days (in words): solid
[2] = Dynamic vapour sorption (moisture sorption) with XRPD of post-DVS material; type: physicochemical; conditions: for XRPD analysis of the post-DVS material: after DVS and drying at 60 °C for 2 hours; for Hygroscopicity (in words): from DVS moisture sorption; for Moisture Sorption (hygroscopicity in words): from uptake at 60% and 90% RH
Description: Dynamic vapour sorption experiment was carried out by first holding the sample at 40% RH and 25.0° C. until an equilibrium weight was reached or for a maximum of four hours. The sample was then subjected to an isothermal (at 25.0° C.) adsorption scan from 40 to 90% RH in steps of 10%. The sample was allowed to equilibrate to an asymptotic weight at each point for a maximum of four hours. Following adsorption, a desorption scan from […] to 5% RH (at 25.0° C.) was run in steps of 10% again allowing a maximum of four hours for equilibration to an asymptotic weight. An adsorption scan was then performed from 0 to 40% RH in steps of 10%. The sample was then dried for no less than two hours at 60.0° C. and the resulting solid analyzed by XRPD.

[3] = Aqueous solubility (slurry in deionized water at room temperature, filtrate by HPLC, solids by XRPD); conditions: for Solubility / Aqueous Solubility: deionized water; for Solubility: equilibrated with stirring, filtrate by HPLC; for Aqueous Solubility: standard curve linear range 0.008 to 0.2 mg/mL; for Aqueous Solubility: XRPD (1 day) of solids: solid form after 1 day slurry in water
Description: Approximately 14-25 mg of Forms A, D and G were transferred to 20 mL vials equipped with magnetic stir bars. 1.0 mL of deionized water was added and the resulting free flowing slurry was allowed to equilibrate over 1 and 7 days period with stirring at room temperature. […] The filtrates were analyzed by HPLC to determine solubility.

[4] = Single form slurry experiments of Forms A, D and G; type: physicochemical; conditions: ambient temperature, all tested conditions
Description: Single form slurry experiments were conducted for Forms A, D and G in three solvents stems, water, 1:2 v/v IPAc/heptane, and toluene to evaluate their physical form stability as a single polymorph (Table 14). Form A remained unchanged at six day time point. […] Form D remained unchanged for three days in water but converted to a mixture A and D at six days. In 1:2 IPAc/heptane and toluene, Form D converted to a mixture of A and D at three days and then Form A at six days. […] Form D is also a metastable polymorph but its conversion to Form A is kinetically slower than Form G. The conversion was the slowest in water partly due to low solubility.
Approximately 10-20 mg of Forms A, D and G were weighed into 8 mL clear vials equipped with magnetic stir bars (Table 14). Water, IPAc/Heptane (1:2 V/V) and toluene were used as the solvent systems for these competitive slurry experiments. Three selected solvents, 1.0 mL, were added to achieve free-flowing slurry and allowed to equilibrate at room temperature. All slurries will be isolated via centrifuge filtration after three day and six days of equilibration.

[5] = Competitive slurry of calcium, potassium and sodium salts in acetone; type: physicochemical; conditions: for Outcome of competitive slurry of salts (in words): acetone (50 μL water added for potassium and sodium salts), room temperature, one and seven days; for XRPD of solids, aliquot time point Day 1 / XRPD of solids, aliquot time point Day 7: RT
Description: Calcium, sodium, and potassium salts were used to setup different competitive slurry experiments. For competitive slurry of calcium salts (˜5-6 mg of Salt I and Salt II) were weighed into a 5.0 mL clear vial equipped with magnetic stir bars. These steps were repeated for potassium salt material (˜5-6.5 mg of Salt III) and sodium salt materials (˜2.6-6.4 mg of Salt IV and Salt V). […] All slurries, 400 μL, were filtered through 0.45 micron centrifuge filters after one and seven days of equilibration. The solids were analyzed by XRPD to check for salt conversion (Table 36).

[6] = Stability of crystalline materials from selected salts in different humidity (XRPD); type: physicochemical; conditions: for XRPD Post humidity exposure: 65% RH, RT; for XRPD Initial: before humidity exposure
Text: Table 49 provides thermal stability data. Table 50 provides TGA thermal data.

[7] = Thermal holding (TGA thermal hold) experiments of salts, XRPD of resulting solid; type: physicochemical
Description: Salt I, Salt II, Salt III, Salt IV, Salt V, Salt VI, Salt VII, Salt VIII, Salt IX and Salt X were characterized to evaluate its physical form and stability.
In an effort to isolate a high melt crystal form, the material was held at 130° C. for 2 minutes followed by cooling to ambient temperature.
In an effort to isolate a high melt crystal form through a dehydration/recrystallization process, Salt IV was held at 130° C. for 2 minutes followed by cooling to ambient temperature.

[8] = slurry of potassium or sodium salts in acetone + 0.05 mL water
[9] = after thermal stress at 60.0 °C
[10] = parent material before thermal stress
[11] = competitive slurry of calcium salts (Salt I + Salt II) in acetone 1.0 mL

Row | Compound | XRPD, aliquot time point Day 1 [1] | XRPD, aliquot time point Day 7 [1] | Chemical stability / degradation by HPLC after storage at 60 °C for seven days (in words) [1] | Moisture adsorbed at 60% RH ([2]; DVS, 25.0 °C, 60% RH) | Moisture Sorption 90% RH ([2]; DVS, 25.0 °C, 90% RH) | Outcome of competitive slurry of salts (in words) [5] | XRPD of solids, aliquot time point Day 1 [5, 8] | XRPD of solids, aliquot time point Day 7 [5, 8] | HPLC (% AUC) [1, 9] | Parent Material HPLC (% AUC) [1, 10] | Physical form / XRPD pattern change after storage at 60 °C for seven days (in words) [1] | XRPD Post humidity exposure [6] | XRPD Initial [6] | Moisture Sorption ([2]; 60% RH) | hydration property ([2]; 60% RH) | Moisture Sorption ([2]; 90% RH) | hydration property ([2]; 90% RH) | Moisture Sorption (hygroscopicity in words) ([2]; DVS) | XRPD analysis of the post-DVS material [2] | Hygroscopicity (in words) [2] | further results
1 | O=C(O)CNC(=O)c1ncc(-c2cccc(F)c2)cc1O [Form G, 2-(5-(3-fluorophenyl)-3-hydroxypicolinamido)acetic acid] | form mixture; also recorded: A + G | only Form A | chemically stable | 0.4 wt % | 7.1 wt % |  |  |  |  |  |  |  |  |  |  |  |  |  | afforded Form A | slightly hygroscopic; also recorded: moderately hygroscopic | HPLC (% AUC) ([1]; after storage at 60.0 °C): >99.9 % AUC; Parent Material HPLC (% AUC) ([1]; before storage at 60.0 °C): >99.3 % AUC; Moisture Sorption 60% RH ([2]; DVS, 25.0 °C, 60% RH): 0.4%; Moisture Sorption 90% RH ([2]; DVS, 25.0 °C, 90% RH, listed as G): 7.1 wt %; Weight moisture uptake at 60% RH ([2]; DVS, 60% RH): about 0.4 % weight; Weight moisture uptake at 90% RH ([2]; DVS, 90% RH): about 7.1 % weight; Solubility ([3]; water, thermodynamic from solid, Solubility, room temperature): 61 µg/mL (≈ 210 µM); Outcome in the single form and competitive slurry experiments (in words) [4]: converted to Form A
2 | O.O=C([O-])CNC(=O)c1ncc(-c2cccc(F)c2)cc1[O-].[Na+].[Na+] [Salt V] | Salt V | Salt V |  | 6.0 wt % | 6.4 wt % | most stable polymorphs | Salt V + | Salt V | 99.9 % AUC | 99.9 % AUC |  | Salt V | Salt V | 60% RH: 6.0 wt % |  | 90% RH: 6.4 wt % |  | (moderately | mostly consistent with Salt V with a few missing peaks | moderately hydroscopic; also recorded: moderately hygroscopic | hydration property [2]: monohydrate; Aqueous Solubility ([3]; room temperature): 79800 µg/mL; Aqueous Solubility: XRPD (1 day) of solids [3]: Salt V + Extra; XRPD Pre-thermal hold ([7]; before TGA thermal hold): Salt V

Now from value to molecule, other results behind:

Row | XRPD, aliquot time point Day 1 [1] | XRPD, aliquot time point Day 7 [1] | Chemical stability / degradation by HPLC after storage at 60 °C for seven days (in words) [1] | Moisture adsorbed at 60% RH ([2]; DVS, 25.0 °C, 60% RH) | Moisture Sorption 90% RH ([2]; DVS, 25.0 °C, 90% RH) | Outcome of competitive slurry of salts (in words) [5] | XRPD of solids, aliquot time point Day 1 [5, 8] | XRPD of solids, aliquot time point Day 7 [5, 8] | HPLC (% AUC) [1, 9] | Parent Material HPLC (% AUC) [1, 10] | Physical form / XRPD pattern change after storage at 60 °C for seven days (in words) [1] | XRPD Post humidity exposure [6] | XRPD Initial [6] | Moisture Sorption ([2]; 60% RH) | hydration property ([2]; 60% RH) | Moisture Sorption ([2]; 90% RH) | hydration property ([2]; 90% RH) | Moisture Sorption (hygroscopicity in words) ([2]; DVS) | Compound | XRPD analysis of the post-DVS material [2] | Hygroscopicity (in words) [2] | further results
3 | Salt III | Salt III |  | 2.1 wt % | 4.5 wt % | most stable polymorphs | Salt III | Salt III | 99.9 % AUC | 99.9 % AUC | no change in physical form | Salt III + Salt IX | Salt III + Salt IX | 60% RH: 2.1 wt % | hemi-(60% RH) | 90% RH: 4.5 wt % | to mono-hydrate | (moderately | O=C([O-])CNC(=O)c1ncc(-c2cccc(F)c2)cc1O.[K+] [Salt III] |  | moderately hydroscopic; also recorded: moderately hygroscopic | Solid form by XRPD after 1 day ([3]; slurry in deionized water, room temperature, 1 day (24 hour)): converted from Salt III to Salt IX; Solid form by XRPD after 7 day ([3]; slurry in deionized water, room temperature, 7 days): remained as Salt IX; XRPD Post thermal hold ([7]; 30-130 °C at 10 °C/min, hold 130 °C/2 min): Salt III; XRPD Post thermal hold, sample left on bench top, 24 hrs ([7]; 30-130 °C at 10 °C/min, hold 130 °C/2 min, then bench top 24 hrs): Salt III; XRPD of solid after thermal hold at 130 °C for 2 minutes ([7]; held at 130 °C for 2 minutes, cooled to ambient temperature): consistent with Salt III
4 | Salt I | Salt I | chemically stable | 1.0 wt % | 4.1 wt % | most stable polymorphs |  |  |  |  | no change in physical form |  |  | 60% RH: 1.0 wt % | anhydrate (60% | 90% RH: 4.1 wt % | monohydrate | (moderately | O=C([O-])CNC(=O)c1ncc(-c2cccc(F)c2)cc1O.O=C([O-])CNC(=O)c1ncc(-c2cccc(F)c2)cc1O.[Ca+2] [Salt I] | consistent XRPD pattern as the starting material | moderately hydroscopic; also recorded: moderately hygroscopic | XRPD of solids, aliquot time point Day 1 [5, 11]: Salt I; XRPD of solids, aliquot time point Day 7 [5, 11]: Salt I; Solubility ([3]; room temperature): 10 µg/mL; Aqueous Solubility ([3]; room temperature): 10 µg/mL; Aqueous Solubility: XRPD (1 day) of solids [3]: Salt I + Extra
5 |  |  |  | 0.3 wt % | 0.7 wt % |  |  |  |  |  |  |  |  | 60% RH: 0.3 wt % |  | 90% RH: 0.7 wt % |  |  | O=C([O-])CNC(=O)c1ncc(-c2cccc(F)c2)cc1O.[Na+] [Salt VI] | consistent XRPD diffractogram | slightly hydroscopic; also recorded: slightly hygroscopic | hydration property [2]: anhydrate
